Experimental data taken from patent US11566007B2, “Ras inhibitors” (Revolution Medicines, Inc., priority 2019, dated 2023).
Values joined by “and” are separate entries in the source; they are usually repeats but may differ in a detail not shown here. Equal values may be shown once. Read-outs that look alike come from different tables or passages of the source.

Legend:
[1] = molecular target: KRAS G12V (Homo sapiens (Human), UniProt P01116+P62937, G12V); assay: Ras-Raf (BRAF RBD) disruption / FRET / MOA assay, KRAS G12V; assay type: biochemical; settings: read-out: IC50* KRAS G12V FRET data
In short: (§1)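 A 10-point, 3-fold dilution series topping at 30 μM final was incubated 3 h at 25° C with the Ras/cyclophilin A/BRAF RBD mixture.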

[2] = molecular target: KRAS G12D (Homo sapiens (Human), UniProt P01116+P62937, G12D); assay: Ras-Raf (BRAF RBD) disruption / FRET / MOA assay, KRAS G12D; assay type: biochemical; settings: Ras-Raf disruption/FRET/MOA assay; class symbols; read-out: KRAS G12D FRET data IC50
In short: as §1

[3] = molecular target: KRAS Q61H (Homo sapiens (Human), UniProt P01116+P62937, Q61H); assay: Ras-Raf (BRAF RBD) disruption / FRET / MOA assay, KRAS Q61H; assay type: biochemical; settings: Ras-Raf disruption/FRET/MOA assay; class symbols; read-out: KRAS Q61H FRET data IC50
Procedure: (§2) The purpose of this biochemical assay is to measure the ability of test compounds to facilitate ternary complex formation between a nucleotide-loaded Ras isoform and cyclophilin A; the resulting ternary complex disrupts binding to a BRAF^RBD construct, inhibiting Ras signaling through a RAF effector.
(§3) […]. Compound is present in plate wells as a 10-point 3-fold dilution series starting at a final concentration of 30 μM. After incubation at 25° C. for 3 hours, a mixture of Anti-His Eu-W1024 and anti-GST allophycocyanin is then added to assay sample wells at final concentrations of 10 nM and 50 nM, respectively, and the reaction incubated for an additional 1.5 hours. […] Compounds that facilitate disruption of a Ras:RAF complex are identified as those eliciting a decrease in the TR-FRET ratio relative to DMSO control wells.
(§4) Note—The following protocol describes a procedure for monitoring disruption of K-Ras G12C (GMP-PNP) binding to BRAF^RBD by a compound of the invention. This protocol may also be executed substituting other Ras proteins or nucleotides.
(§5) The purpose of this biochemical assay was to measure the ability of test compounds to facilitate ternary complex formation between a nucleotide-loaded K-Ras isoform and Cyclophilin A; the resulting ternary complex disrupts binding to a BRAF^RBD construct, inhibiting K-Ras signaling through a RAF effector. Data is reported as IC50 values.
(§6) […]. Compound was present in plate wells as a 10-point 3-fold dilution series starting at a final concentration of 30 μM. After incubation at 25° C. for 3 hours, a mixture of Anti-His Eu-W1024 and anti-GST allophycocyanin was then added to assay sample wells at final concentrations of 10 nM and 50 nM, respectively, and the reaction incubated for an additional 1.5 hours. […] Compounds that facilitate disruption of a K-Ras:RAF complex were identified as those eliciting a decrease in the TR-FRET ratio relative to DMSO control wells.

[4] = molecular target: KRAS G12S (Homo sapiens (Human), UniProt P01116+P62937, G12S); assay: Ras-Raf (BRAF RBD) disruption / FRET / MOA assay, KRAS G12S; assay type: biochemical; settings: Ras-Raf disruption/FRET/MOA assay; class symbols; read-out: KRAS G12S FRET data IC50
In short: as §1

[5] = molecular target: KRAS WT (Homo sapiens (Human), UniProt P01116+P62937); assay: Ras-Raf (BRAF RBD) disruption / FRET / MOA assay, KRAS WT; assay type: biochemical; settings: read-out: IC50* KRAS WT FRET data
In short: as §1

[6] = molecular target: NRAS WT (Homo sapiens (Human), UniProt P01111+P62937); assay: Ras-Raf (BRAF RBD) disruption / FRET / MOA assay, NRAS WT; assay type: biochemical; settings: read-out: IC50* NRAS WT FRET data
Procedure: as §2, §3, §4, §5, §6

[7] = molecular target: K-Ras G12C (Homo sapiens (Human), UniProt P01116+P62937, G12C); assay: Ras-Raf (BRAF RBD) disruption / FRET / MOA assay, KRAS G12C; assay type: biochemical; settings: KRAS G12C; Ras-Raf disruption/FRET/MOA assay; read-out: IC50* KRAS G12C FRET data
In short: as §1

[8] = molecular target: K-Ras G13C (Homo sapiens (Human), UniProt P01116+P62937, G13C); assay: Ras-Raf (BRAF RBD) disruption / FRET / MOA assay, KRAS G13C; assay type: biochemical; settings: KRAS G13C; Ras-Raf disruption/FRET/MOA assay; read-out: IC50* KRAS G13C FRET data
In short: as §1

[9] = molecular target: NRAS Q61K (Homo sapiens (Human), UniProt P01111+P62937, Q61K); assay: Ras-Raf (BRAF RBD) disruption / FRET / MOA assay, NRAS Q61K; assay type: biochemical; settings: NRAS Q61K; Ras-Raf disruption/FRET/MOA assay; read-out: IC50* NRAS Q61K FRET data
Procedure: as §2, §3, §4, §5, §6

[10] = molecular target: KRAS G13D (Homo sapiens (Human), UniProt P01116+P62937, G13D); assay: Ras-Raf (BRAF RBD) disruption / FRET / MOA assay, KRAS G13D; assay type: biochemical; settings: read-out: IC50* KRAS G13D FRET data
In short: as §1

[11] = molecular target: NRAS G12C (Homo sapiens (Human), UniProt P01111+P62937, G12C); assay: Ras-Raf (BRAF RBD) disruption / FRET / MOA assay, NRAS G12C; assay type: biochemical; settings: read-out: IC50* NRAS G12C FRET data
In short: as §1

[12] = molecular target: NRAS Q61R (Homo sapiens (Human), UniProt P01111+P62937, Q61R); assay: Ras-Raf (BRAF RBD) disruption / FRET / MOA assay, NRAS Q61R; assay type: biochemical; settings: NRAS Q61R; Ras-Raf disruption/FRET/MOA assay; read-out: IC50* NRAS Q61R FRET data
Procedure: as §2, §3, §4, §5, §6

[13] = test system: NCI-H358 cells (K-Ras G12C); assay: Potency assay: pERK in NCI-H358 cells; assay type: cell-based, human; settings: H358 KRAS G12C, read-out: pERK EC50
In short: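 pERK decrease read by AlphaLISA SureFire p-ERK1/2 or In-Cell Western after 4 h compound exposure at 37 °C, 5% CO2.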

[14] = test system: NCI-H358 (K-Ras G12C); assay: CellTiter-Glo cell viability assay, NCI-H358; assay type: cell-based, human; settings: NCI-H358, 5-day treatment, class symbols, read-out: Additional H358 Cell Viability assay data (K-Ras G12C, IC50)
In short: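 Cells seeded, compound added directly, 5-day exposure. Plates to RT ~30 min, CellTiter-Glo luminescence read. Normalized to DMSO avg (x100); 4-parameter logistic fit.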

Chain of NRAS WT (P01111 whole entry): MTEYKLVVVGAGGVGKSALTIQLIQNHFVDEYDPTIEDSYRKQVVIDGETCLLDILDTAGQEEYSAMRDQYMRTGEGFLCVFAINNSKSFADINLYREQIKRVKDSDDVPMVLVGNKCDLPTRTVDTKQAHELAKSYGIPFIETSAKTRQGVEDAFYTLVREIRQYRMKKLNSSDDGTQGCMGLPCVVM
Chain of NRAS WT (P62937 whole entry): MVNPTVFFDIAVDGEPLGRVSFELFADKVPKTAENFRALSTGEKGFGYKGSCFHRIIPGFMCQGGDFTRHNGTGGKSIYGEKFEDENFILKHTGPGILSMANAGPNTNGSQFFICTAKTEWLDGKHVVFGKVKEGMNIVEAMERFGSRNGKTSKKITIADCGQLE
Chain of KRAS G12D (P01116-2 other isoform, or with tags, fused parts or gaps G12D): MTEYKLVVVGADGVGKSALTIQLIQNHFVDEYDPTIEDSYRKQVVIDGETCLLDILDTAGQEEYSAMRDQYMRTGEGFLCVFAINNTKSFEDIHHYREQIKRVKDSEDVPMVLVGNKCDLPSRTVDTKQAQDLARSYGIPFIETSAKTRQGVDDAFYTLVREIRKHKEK
Chain of KRAS G12D (P62937 whole entry): as the sequence (P62937 whole entry) above
Chain of KRAS G12S (P01116-2 other isoform, or with tags, fused parts or gaps G12S): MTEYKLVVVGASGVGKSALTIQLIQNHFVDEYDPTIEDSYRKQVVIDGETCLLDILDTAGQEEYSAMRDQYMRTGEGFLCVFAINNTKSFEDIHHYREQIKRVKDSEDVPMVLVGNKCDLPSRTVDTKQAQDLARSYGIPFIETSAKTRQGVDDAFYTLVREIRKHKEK
Chain of KRAS G12S (P62937 whole entry): as the sequence (P62937 whole entry) above
Chain of KRAS WT (P01116-2 other isoform, or with tags, fused parts or gaps): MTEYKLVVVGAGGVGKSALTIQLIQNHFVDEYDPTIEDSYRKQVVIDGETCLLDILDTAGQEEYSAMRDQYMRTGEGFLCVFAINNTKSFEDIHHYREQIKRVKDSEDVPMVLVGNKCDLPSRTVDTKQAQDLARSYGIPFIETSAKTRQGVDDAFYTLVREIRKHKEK
Chain of KRAS WT (P62937 whole entry): as the sequence (P62937 whole entry) above
Chain of NRAS Q61K (P01111 whole entry Q61K): as the sequence (P01111 whole entry) above, with Q61K counted along it
Chain of NRAS Q61K (P62937 whole entry): as the sequence (P62937 whole entry) above
Chain of K-Ras G12C (P01116-2 other isoform, or with tags, fused parts or gaps G12C): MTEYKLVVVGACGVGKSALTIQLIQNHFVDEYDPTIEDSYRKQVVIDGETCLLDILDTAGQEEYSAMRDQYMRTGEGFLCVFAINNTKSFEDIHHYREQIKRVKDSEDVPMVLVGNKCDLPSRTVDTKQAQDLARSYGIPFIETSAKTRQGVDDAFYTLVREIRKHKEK
Chain of K-Ras G12C (P62937 whole entry): as the sequence (P62937 whole entry) above
Chain of KRAS G12V (P01116-2 other isoform, or with tags, fused parts or gaps G12V): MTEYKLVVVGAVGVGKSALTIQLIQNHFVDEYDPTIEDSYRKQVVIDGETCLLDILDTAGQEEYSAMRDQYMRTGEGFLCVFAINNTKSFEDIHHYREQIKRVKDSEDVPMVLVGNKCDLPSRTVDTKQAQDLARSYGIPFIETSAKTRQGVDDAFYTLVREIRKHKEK
Chain of KRAS G12V (P62937 whole entry): as the sequence (P62937 whole entry) above
Chain of K-Ras G13C (P01116-2 other isoform, or with tags, fused parts or gaps G13C): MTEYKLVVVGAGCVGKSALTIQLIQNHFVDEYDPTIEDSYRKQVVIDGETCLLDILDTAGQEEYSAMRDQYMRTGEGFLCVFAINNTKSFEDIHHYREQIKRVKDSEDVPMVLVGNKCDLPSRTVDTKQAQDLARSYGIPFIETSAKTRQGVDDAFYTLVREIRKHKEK
Chain of K-Ras G13C (P62937 whole entry): as the sequence (P62937 whole entry) above
Chain of KRAS Q61H (P01116-2 other isoform, or with tags, fused parts or gaps Q61H): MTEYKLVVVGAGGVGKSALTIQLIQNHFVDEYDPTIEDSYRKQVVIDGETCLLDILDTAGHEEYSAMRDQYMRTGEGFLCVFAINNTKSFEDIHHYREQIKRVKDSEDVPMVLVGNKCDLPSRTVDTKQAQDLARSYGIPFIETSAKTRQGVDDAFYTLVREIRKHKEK
Chain of KRAS Q61H (P62937 whole entry, canonical isoform): as the sequence (P62937 whole entry) above
Chain of NRAS Q61R (P01111 whole entry Q61R): as the sequence (P01111 whole entry) above, with Q61R counted along it
Chain of NRAS Q61R (P62937 whole entry): as the sequence (P62937 whole entry) above
Chain of KRAS G13D (P01116-2 other isoform, or with tags, fused parts or gaps G13D): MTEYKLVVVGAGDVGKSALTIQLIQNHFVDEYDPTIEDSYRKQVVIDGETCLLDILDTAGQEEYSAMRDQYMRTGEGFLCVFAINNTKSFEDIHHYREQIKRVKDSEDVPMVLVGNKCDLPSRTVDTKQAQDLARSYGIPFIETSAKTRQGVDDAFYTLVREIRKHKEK
Chain of KRAS G13D (P62937 whole entry): as the sequence (P62937 whole entry) above
Chain of NRAS G12C (P01111 whole entry G12C): as the sequence (P01111 whole entry) above, with G12C counted along it
Chain of NRAS G12C (P62937 whole entry): as the sequence (P62937 whole entry) above

| SMILES | IC50 [1] | IC50 [2] | IC50 [3] | IC50 [4] | IC50 [5] | IC50 [6] | IC50 [7] | IC50 [8] | IC50 [9] | IC50 [10] | IC50 [11] | IC50 [12] | EC50 ([13]; Homo sapiens, NCI-H358) | IC50 ([14]; Homo sapiens, NCI-H358, 120 h) | EC50 [13] | IC50 [14] |
| --- | --- | --- | --- | --- | --- | --- | --- | --- | --- | --- | --- | --- | --- | --- | --- | --- |
| C=CC(=O)N1CC[C@H](C(=O)N(C)[C@H](C(=O)N[C@H]2Cc3cc(sn3)-c3ccc4c(c3)c(c(-c3cccnc3[C@H](C)OC)n4CC)CC(C)(C)COC(=O)[C@@H]3CCCN(N3)C2=O)C(C)C)C1 (atropisomer, axis not shown) [Example A340] | 1 to 10 µM | > 10 µM | 0.1 to 1 µM | 1 to 10 µM | 1 to 10 µM | 0.1 to 1 µM | 0.1 to 1 µM | 0.1 to 1 µM | 0.1 to 1 µM | 1 to 10 µM | 0.1 to 1 µM | 1 to 10 µM | – | – | – | – |
| C=CC(=O)N(C)[C@H]1CCN(C(=O)N(C)[C@H](C(=O)N[C@H]2Cc3nc(cs3)-c3ccc4c(c3)c(c(-c3cccnc3[C@H](C)OC)n4CC)CC(C)(C)COC(=O)[C@@H]3CCCN(N3)C2=O)C(C)C)C1 (atropisomer, axis not shown) [Example A384] | 0.1 to 1 µM | 0.1 to 1 µM | – | 0.1 to 1 µM | 0.1 to 1 µM | 0.1 to 1 µM | – | 0.1 to 1 µM | 0.01 to 0.1 µM | – | 0.01 to 0.1 µM | 0.1 to 1 µM | < 5 µM | < 0.01 µM | – | – |
| C=CC(=O)N1CC[C@H](C(=O)N(C)[C@H](C(=O)N[C@H]2Cc3cc(O)cc(c3)-c3ccc4c(c3)c(c(-c3cc(CN(C)C)cnc3[C@H](C)OC)n4CC)CC(C)(C)COC(=O)[C@@H]3CCCN(N3)C2=O)C(C)C)C1 (atropisomer, axis not shown) [Example A537] | 0.01 to 0.1 µM | 0.1 to 1 µM | 0.01 to 0.1 µM | 0.01 to 0.1 µM | 0.01 to 0.1 µM | 0.01 to 0.1 µM | – | 0.01 to 0.1 µM | 0.1 to 1 µM | 0.01 to 0.1 µM | < 0.01 µM | 0.1 to 1 µM | – | – | < 5 µM | – |
| CCn1c(-c2cccnc2[C@H](C)OC)c2c3cc(ccc31)N1CCC[C@@H](C[C@H](NC(=O)[C@H](C(C)C)N(C)C(=O)C3(F)CCN(C(=O)C#CC(C)(C)N(C)C)CC3)C(=O)N3CCC[C@H](N3)C(=O)OCC(C)(C)C2)C1 (atropisomer, axis not shown) [Example A616] | 1 to 10 µM | > 10 µM | 1 to 10 µM | 1 to 10 µM | 1 to 10 µM | 1 to 10 µM | – | 1 to 10 µM | – | 1 to 10 µM | < 0.01 µM | – | – | – | < 5 µM | < 0.01 µM |
| C=CC(=O)N1CC[C@H](C(=O)N(C)C(C(=O)N[C@H]2C[C@H]3CN(CCO3)c3ccc4c(c3)c(c(-c3cccnc3[C@H](C)OC)n4CC)CC(C)(C)COC(=O)[C@@H]3CCCN(N3)C2=O)C(C)C)C1 (mixture of isomers) [Example A507] | 1 to 10 µM | > 10 µM | > 10 µM | 1 to 10 µM | > 10 µM | 1 to 10 µM | 0.1 to 1 µM | 1 to 10 µM | > 10 µM | > 10 µM | 0.1 to 1 µM | > 10 µM | – | – | – | – |
| C=CC(=O)N1CC[C@H](C(=O)N(C)[C@H](C(=O)N[C@H]2Cc3cc(O)cc(c3)-c3ccc4c(c3)c(c(-c3ccc(N5CCN(C)CC5)nc3)n4CC)CC(C)(C)COC(=O)[C@@H]3CCCN(N3)C2=O)C(C)C)C1 [Example A089] | 1 to 10 µM | > 10 µM | 0.1 to 1 µM | 1 to 10 µM | 1 to 10 µM | 1 to 10 µM | 0.1 to 1 µM | 1 to 10 µM | 1 to 10 µM | – | – | 1 to 10 µM | – | – | – | – |
| C=CC(=O)N1CC[C@H](C(=O)N(C)[C@H](C(=O)N[C@H]2Cc3cc(O)cc(c3)-c3ccc4c(c3)c(c(-c3cccnc3)n4C(C)(C)C#N)CC(C)(C)COC(=O)[C@@H]3CCCN(N3)C2=O)C(C)C)C1 [Example A148] | 0.1 to 1 µM and > 10 µM | 1 to 10 µM and > 10 µM | 0.01 to 0.1 µM | 0.1 to 1 µM and > 10 µM | 0.1 to 1 µM and > 10 µM | 0.1 to 1 µM | 0.01 to 0.1 µM and 1 to 10 µM | > 10 µM and 1 to 10 µM | 0.1 to 1 µM | 1 to 10 µM and > 10 µM | – | 0.1 to 1 µM | < 5 µM | – | – | – |
| C=CC(=O)N1CCN(C(=O)N(C)[C@H](C(=O)N[C@H]2Cc3cc(O)cc(c3)-c3ccc4c(c3)c(c(-c3cccnc3[C@H](C)OC)n4CC)CC(C)(C)COC(=O)[C@@H]3CCCN(N3)C2=O)C(C)C)CC1 [Example A338] | – | 0.1 to 1 µM | 0.01 to 0.1 µM | 0.01 to 0.1 µM | – | – | – | – | – | – | – | – | – | – | < 5 µM | 0.01 to 0.1 µM |
| C=CC(=O)N1CCOC2(CCN(C(=O)N(C)[C@H](C(=O)N[C@H]3CN4CCC=C(C4)c4ccc5c(c4)c(c(-c4cccnc4[C@H](C)OC)n5CC)CC(C)(C)COC(=O)[C@@H]4CCCN(N4)C3=O)C(C)C)CC2)C1 [Example A563] | – | > 10 µM | 1 to 10 µM | 1 to 10 µM | – | – | – | – | – | – | – | – | – | – | < 5 µM | 0.1 to 1 µM |
